Where a name gives a salt, the structure may show the parent alone.
Target: LRRK2 wild-type (Homo sapiens (Human), UniProt Q5S007)
Assay: LanthaScreen LRRK2 Biochemical Activity Assay
Details: human recombinant LRRK2 (amino acids 970-2527) wild-type, ATP 57 μM, TR-FRET; read-out: IC50 (nM), inhibition of LRRK2 wild-type kinase activity
Protocol: The ability of a compound of Formula (I) to inhibit LRRK2 kinase activity is measured using a LanthaScreen™ kinase activity assay. In general, in a LanthaScreen™ kinase activity assay, kinase, fluorescein-labeled substrate, and ATP are allowed to react. Then EDTA (to stop the reaction) and terbium-labeled antibody (to detect phosphorylated product) are added. In a LanthaScreen™ kinase reaction, the antibody associates with the phosphorylated fluorescein labeled substrate resulting in an increased TR-FRET value. The TR-FRET value is a dimensionless number that is calculated as the ratio of the acceptor (fluorescein) signal to the donor (terbium) signal. The amount of antibody that is bound to the tracer is directly proportional to the amount of phosphorylated substrate present, and in this manner, kinase activity can be detected and measured by an increase in the TR-FRET value. Accordingly, in this Example, enzyme reactions are carried out in a kinase reaction buffer in the presence or absence of representative compounds of Formula (I) at various concentrations in 384-well plate at room temperature for 60 minutes. The kinase reaction buffer contains human recombinant LRRK2 protein (amino acids 970-2527, 5 nM), ATP (57 μM for LRRK2 wild-type, 134 μM for G2019S mutant protein), Fluorescein-LRRKtide substrate (0.4 mM), 50 mM Tris pH 7.5, 10 mM MgCl2, 1 mM EGTA, 0.01% Brij™-35, and 2 mM DTT. The final reaction volume for each reaction is 10 μL. The reactions are initated by adding the substrate and stopped by the addition of 10 μL of a TR-FRET dilution buffer supplemented with a kinase quench buffer (10 mM EDTA final) and Tb-anti-pLRRKtide (2 nM final). The plate is further incubated at room temperature for another 60 minutes, and the fluorescent signals are read on an EnVision® multilabel plate reader (PerkinElmer, Waltham, MA) with excitation at 340 nm and emission at 495 and 520 nm. The assay signal is determined as a ratio of FRET-specific signal measured with emission filter at 520 nm to that of the signal measured with Tb-specific emission filter at 495 nm. IC50 values for compound-mediated enzyme inhibition are calculated using appropriate programs in GraphPad Prism software by plotting the logarithm of the compound concentrations versus percent inhibition. All reagents are purchased from Thermo Fisher Scientific.

LRRK2 wild-type, sequence (Q5S007 970-2527): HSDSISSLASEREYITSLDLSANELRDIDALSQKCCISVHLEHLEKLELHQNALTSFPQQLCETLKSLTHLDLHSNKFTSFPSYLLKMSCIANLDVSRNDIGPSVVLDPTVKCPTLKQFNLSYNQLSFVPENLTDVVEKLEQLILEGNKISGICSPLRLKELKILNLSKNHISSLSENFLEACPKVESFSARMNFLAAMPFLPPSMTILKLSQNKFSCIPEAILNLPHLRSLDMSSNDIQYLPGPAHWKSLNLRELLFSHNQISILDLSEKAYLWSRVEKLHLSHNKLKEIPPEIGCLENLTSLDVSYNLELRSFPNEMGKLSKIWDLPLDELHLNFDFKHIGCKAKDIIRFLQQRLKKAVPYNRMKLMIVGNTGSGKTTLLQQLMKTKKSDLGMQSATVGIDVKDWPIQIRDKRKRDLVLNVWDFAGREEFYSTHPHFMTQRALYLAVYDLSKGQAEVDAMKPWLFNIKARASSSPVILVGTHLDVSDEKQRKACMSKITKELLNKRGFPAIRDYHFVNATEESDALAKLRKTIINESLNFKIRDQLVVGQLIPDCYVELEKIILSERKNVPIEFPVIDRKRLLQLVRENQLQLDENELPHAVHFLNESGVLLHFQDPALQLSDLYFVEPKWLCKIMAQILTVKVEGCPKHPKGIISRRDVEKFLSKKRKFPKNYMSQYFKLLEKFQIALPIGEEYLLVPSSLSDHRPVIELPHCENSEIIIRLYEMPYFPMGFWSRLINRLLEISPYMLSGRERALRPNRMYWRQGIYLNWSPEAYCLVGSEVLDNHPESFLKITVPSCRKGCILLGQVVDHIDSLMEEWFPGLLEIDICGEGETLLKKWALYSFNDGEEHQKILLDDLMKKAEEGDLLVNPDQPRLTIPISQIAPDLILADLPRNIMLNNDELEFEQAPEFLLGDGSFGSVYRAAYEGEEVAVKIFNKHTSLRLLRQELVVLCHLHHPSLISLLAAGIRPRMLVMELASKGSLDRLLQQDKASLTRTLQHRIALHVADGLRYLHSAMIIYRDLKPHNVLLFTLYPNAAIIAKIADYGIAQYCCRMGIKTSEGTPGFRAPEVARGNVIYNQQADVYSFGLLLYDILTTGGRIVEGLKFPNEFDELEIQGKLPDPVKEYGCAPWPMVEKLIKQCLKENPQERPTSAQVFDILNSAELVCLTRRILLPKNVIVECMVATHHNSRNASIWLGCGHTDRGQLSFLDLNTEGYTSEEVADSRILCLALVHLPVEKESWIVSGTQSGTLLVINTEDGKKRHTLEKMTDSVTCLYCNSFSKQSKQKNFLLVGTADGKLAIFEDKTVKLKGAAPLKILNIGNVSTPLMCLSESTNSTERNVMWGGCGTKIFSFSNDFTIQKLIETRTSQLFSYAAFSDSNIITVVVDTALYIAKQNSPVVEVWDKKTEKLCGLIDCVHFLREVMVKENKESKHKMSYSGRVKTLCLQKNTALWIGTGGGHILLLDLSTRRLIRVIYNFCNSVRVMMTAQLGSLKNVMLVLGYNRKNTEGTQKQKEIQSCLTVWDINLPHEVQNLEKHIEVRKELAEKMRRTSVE

| IC50 | SMILES |
| --- | --- |
| ≤ 10 nM | C[C@@H]1CN(c2cccc(-c3cnn4ccc(Cl)cc34)n2)C[C@H](C)N1 [Example 57, 5-chloro-3-[6-[(3R,5S)-3,5-dimethylpiperazin-1-yl]-2-pyridyl]pyrazolo[1,5-a]pyridine] |
| ≤ 10 nM | C[C@@H]1CN(c2cc(F)cc(-c3cnn4ccc(Cl)cc34)n2)C[C@H](C)N1 [Example 58, 5-chloro-3-[6-[(3R,5S)-3,5-dimethylpiperazin-1-yl]-4-fluoro-2-pyridyl]pyrazolo[1,5-a]pyridine] |
| ≤ 10 nM | C[C@@H]1CN(c2cc(Cl)cc(-c3cnn4ccc(Cl)cc34)n2)C[C@H](C)N1 [Example 59, 5-chloro-3-[4-chloro-6-[(3S,5R)-3,5-dimethylpiperazin-1-yl]-2-pyridyl]pyrazolo[1,5-a]pyridine] |
| 101 to 400 nM | C[C@@H]1CN(c2nc(-c3cnn4ccc(Cl)cc34)ccc2Cl)C[C@H](C)N1 [Example 60, 5-chloro-3-[5-chloro-6-[(3S,5R)-3,5-dimethylpiperazin-1-yl]-2-pyridyl]pyrazolo[1,5-a]pyridine] |
| ≤ 10 nM | C[C@@H]1CN(c2nc(-c3cnn4ccc(Cl)cc34)ccc2F)C[C@H](C)N1 [Example 61, 5-chloro-3-[6-[(3S,5R)-3,5-dimethylpiperazin-1-yl]-5-fluoro-2-pyridyl]pyrazolo[1,5-a]pyridine] |
| 11 to 100 nM | CNc1ccn2ncc(-c3cc(Cl)cc(C4CCCNC4)n3)c2c1 (centres unmarked) [Example 62, 3-[4-chloro-6-(3-piperidyl)-2-pyridyl]-N-methyl-pyrazolo[1,5-a]pyridin-5-amine] |
| ≤ 10 nM | C[C@@H]1CN(c2ccc(Cl)c(-c3cnn4ccc(Cl)cc34)n2)C[C@H](C)N1 [Example 63, 5-chloro-3-[3-chloro-6-[(3S,5R)-3,5-dimethylpiperazin-1-yl]-2-pyridyl]pyrazolo[1,5-a]pyridine] |
| 11 to 100 nM | C[C@@H]1CN(c2ccc(F)c(-c3cnn4ccc(Cl)cc34)n2)C[C@H](C)N1 [Example 64, 5-chloro-3-[6-[(3S,5R)-3,5-dimethylpiperazin-1-yl]-3-fluoro-2-pyridyl]pyrazolo[1,5-a]pyridine] |
| ≤ 10 nM | CC(C)Oc1ccn2ncc(-c3cc(Cl)cc(C4CCCNC4)n3)c2c1 (centres unmarked) [Example 65, 3-[4-chloro-6-(3-piperidyl)-2-pyridyl]-5-isopropoxy-pyrazolo[1,5-a]pyridine] |
| ≤ 10 nM | CC1(C)CN(c2cccc(-c3cnn4ccc(Cl)cc34)n2)CC(C)(C)N1 [Example 66, 5-chloro-3-[6-(3,3,5,5-tetramethylpiperazin-1-yl)-2-pyridyl]pyrazolo[1,5-a]pyridine] |
| 11 to 100 nM | CS(=O)(=O)CC(=O)Nc1ccn2ncc(-c3cccc(C4CCCNC4)n3)c2c1 (centres unmarked) [Example 67, 2-(methylsulfonyl)-N-(3-(6-(piperidin-3-yl)pyridin-2-yl)pyrazolo[1,5-a]pyridin-5-yl)acetamide] |
| 11 to 100 nM | CS(=O)(=O)NCC(=O)Nc1ccn2ncc(-c3cccc(C4CCCNC4)n3)c2c1 (centres unmarked) [Example 68, 2-(methylsulfonamido)-N-(3-(6-(piperidin-3-yl)pyridin-2-yl)pyrazolo[1,5-a]pyridin-5-yl)acetamide] |
| 11 to 100 nM | C[C@@H]1CN(c2cccc(-c3cnn4ccccc34)n2)CCN1 [Example 69, (R)-3-(6-(3-methylpiperazin-1-yl)pyridin-2-yl)pyrazolo[1,5-a]pyridine formate] |
| 11 to 100 nM | C[C@H]1CN(c2cccc(-c3cnn4ccccc34)n2)CCN1 [Example 70, (S)-3-(6-(3-methylpiperazin-1-yl)pyridin-2-yl)pyrazolo[1,5-a]pyridine formate] |

More lines, now with the values behind:

| SMILES | IC50 |
| --- | --- |
| FC(F)(F)c1ccn2ncc(-c3cc(Cl)cc(C4CCCNC4)n3)c2c1 (centres unmarked) [Example 36, 3-(4-chloro-6-(piperidin-3-yl)pyridin-2-yl)-5-(trifluoromethyl)pyrazolo[1,5-a]pyridine] | 11 to 100 nM |
| c1cc(-c2cnn3ccccc23)nc(N2CCNCC2)c1 [Example 37, 3-(6-piperazin-1-yl-2-pyridyl)pyrazolo[1,5-a]pyridine] | 101 to 400 nM |
| CNc1ccn2ncc(-c3cccc(N4CCNCC4)n3)c2c1 [Example 38, N-methyl-3-(6-piperazin-1-yl-2-pyridyl)pyrazolo[1,5-a]pyridin-5-amine] | 11 to 100 nM |
| CNc1ccn2ncc(-c3cc(Cl)cc(N4CCNCC4)n3)c2c1 [Example 39, 3-(4-chloro-6-piperazin-1-yl-2-pyridyl)-N-methyl-pyrazolo[1,5-a]pyridin-5-amine] | 11 to 100 nM |
| FC(F)(F)c1ccn2ncc(-c3cccc(N4CCNCC4)n3)c2c1 [Example 40, 3-(6-piperazin-1-yl-2-pyridyl)-5-(trifluoromethyl)pyrazolo[1,5-a]pyridine] | 11 to 100 nM |
| FC(F)(F)c1ccn2ncc(-c3cc(Cl)cc(N4CCNCC4)n3)c2c1 [Example 41, 3-(4-chloro-6-piperazin-1-yl-2-pyridyl)-5-(trifluoromethyl) pyrazolo[1,5-a]pyridine] | 11 to 100 nM |
| Clc1ccn2ncc(-c3cccc(N4CCNCC4)n3)c2c1 [Example 42, 5-chloro-3-(6-piperazin-1-yl-2-pyridyl)pyrazolo[1,5-a]pyridine] | 11 to 100 nM |
| Clc1cc(-c2cnn3ccc(Cl)cc23)nc(N2CCNCC2)c1 [Example 43, 5-chloro-3-(4-chloro-6-piperazin-1-yl-2-pyridyl)pyrazolo[1,5-a]pyridine] | 11 to 100 nM |
| Fc1cc(-c2cnn3ccc(Cl)cc23)nc(N2CCNCC2)c1 [Example 44, 5-chloro-3-(4-fluoro-6-piperazin-1-yl-2-pyridyl)pyrazolo[1,5-a]pyridine] | 11 to 100 nM |
| c1cc(-c2cnn3ccccc23)nc(N2CC3CC(C2)N3)c1 [Example 45, 3-[6-(3,6-Diazabicyclo[3.1.1]heptan-3-yl)-2-pyridyl]pyrazolo[1,5-a]pyridine] | 101 to 400 nM |
| Clc1ccn2ncc(-c3cccc(N4CC5CC(C4)N5)n3)c2c1 [Example 46, 3-(6-(5-chloropyrazolo[1,5-a]pyridin-3-yl)pyridin-2-yl)-3,6-diazabicyclo[3.1.1]heptane] | 11 to 100 nM |
| Clc1cc(-c2cnn3ccc(Cl)cc23)nc(N2CC3CC(C2)N3)c1 [Example 47, 5-chloro-3-[4-chloro-6-(3,6-diazabicyclo[3.1.1]heptan-3-yl)-2-pyridyl]pyrazolo[1,5-a]pyridine] | 101 to 400 nM |
| c1cc(-c2cnn3ccccc23)nc(N2CC3CCC2CN3)c1 (centres unmarked) [Example 48, 3-[6-(2,5-diazabicyclo[2.2.2]octan-2-yl)-2-pyridyl]pyrazolo[1,5-a]pyridine] | 101 to 400 nM |
| C[C@@H]1CN(c2cccc(-c3cnn4ccccc34)n2)C[C@H](C)N1 [Example 49, 3-[6-[(3S,5R)-3,5-dimethylpiperazin-1-yl]-2-pyridyl]pyrazolo[1,5-a]pyridine] | 11 to 100 nM |
| C[C@@H]1CN(c2cccc(-c3cnn4ccccc34)n2)C[C@@H](C)N1 [Example 50, 3-[6-[(3R,5R)-3,5-dimethylpiperazin-1-yl]-2-pyridyl]pyrazolo[1,5-a]pyridine] | 11 to 100 nM |
| C[C@@H]1CN(c2cc(Cl)cc(-c3cnn4ccccc34)n2)C[C@H](C)N1 [Example 51, 3-[4-chloro-6-[(3S,5R)-3,5-dimethylpiperazin-1-yl]-2-pyridyl]pyrazolo[1,5-a]pyridine] | 11 to 100 nM |
| C[C@@H]1CN(c2cc(F)cc(-c3cnn4ccccc34)n2)C[C@H](C)N1 [Example 52, 3-[6-[(3R,5S)-3,5-dimethylpiperazin-1-yl]-4-fluoro-2-pyridyl]pyrazolo[1,5-a]pyridine] | 11 to 100 nM |
| CNc1ccn2ncc(-c3cccc(N4C[C@@H](C)N[C@@H](C)C4)n3)c2c1 [Example 53, 3-[6-[(3S,5R)-3,5-dimethylpiperazin-1-yl]-2-pyridyl]-N-methyl-pyrazolo[1,5-a]pyridin-5-amine] | 11 to 100 nM |
| CNc1ccn2ncc(-c3cc(Cl)cc(N4C[C@@H](C)N[C@@H](C)C4)n3)c2c1 [Example 54, 3-[4-chloro-6-[(3S,5R)-3,5-dimethylpiperazin-1-yl]-2-pyridyl]-N-methyl-pyrazolo[1,5-a]pyridin-5-amine] | 11 to 100 nM |
| C[C@@H]1CN(c2cccc(-c3cnn4ccc(C(F)(F)F)cc34)n2)C[C@H](C)N1 [Example 55, 3-[6-[(3S,5R)-3,5-dimethylpiperazin-1-yl]-2-pyridyl]-5-(trifluoromethyl)pyrazolo[1,5-a]pyridine] | ≤ 10 nM |
| C[C@@H]1CN(c2cc(Cl)cc(-c3cnn4ccc(C(F)(F)F)cc34)n2)C[C@H](C)N1 [Example 56, 3-[4-chloro-6-[(3S,5R)-3,5-dimethylpiperazin-1-yl]-2-pyridyl]-5-(trifluoromethyl)pyrazolo[1,5-a]pyridine] | ≤ 10 nM |

Source: US20250051363A1, “Substituted Pyrazolopyridines” (Neuro3 Therapeutics, Inc., priority 2023, published 2025)
